{"source": "patent US7060292B2", "about": "“Lipid structures and uses thereof” (GESynthesis, Inc., priority 2001, dated 2006)", "key": {"[1]": {"test": "pKa and ionization of test compounds", "format": "physicochemical"}, "[2]": {"test": "Movement across bilayer into vesicle interior containing cyclodextrin-esterified DPH (permeability coefficient)", "format": "physicochemical", "method": "Calculation of permeability coefficient (P). The rate constant (kn) for and maximum extent of (Δm) fluorescence change are determined using direct curve fitting procedures (nonlinear regression) assuming that test substance movement is a simple first order process. Deviation from first-order kinetics may be encountered when test compound movement into, out of, or across the membrane is carrier- or channel-mediated or the drug concentration approaches saturation. […] In general an increasing signal takes the form: Et=Eb+En(1−e^−k^n^t)+En+1(1−e^−k^n+1^t)+. . . and a decreasing signal takes the form: Et=Eb+Ene^−k^n^t+En+1e^−k^n+1^t+. . . , where Et is the fluorescence of the system at time t, En is the fluorescence of the system either at time zero (for a decreasing signal) or infinity (for an increasing signal), Eb is the system fluorescence insensitive to addition or removal of test compound, t is time, and kn is the rate constant describing the rate of fluorescence decrease or increase. If more than one first order process is detected, the second or third processes are characterized by En+1, and kn+1 and by En+2 and kn+2, respectively.\nThe half-life for test compound movement across the bilayer is computed from the rate constant as t1/2=0.693/kn.\nThe molar flux (v) of a test compound across the membrane is computed as […]"}, "[3]": {"settings": "Stein 1985; cited from earlier work"}}}
{"smiles": "CCCCCC(=O)O", "note": "[hexanoic acid]", "values": [{"measurement": "percentage ionized", "setting": "[1]; pH 4.0", "value": "~13", "unit": "%"}, {"measurement": "percentage ionized", "setting": "[1]; pH 7.0", "value": "> 99", "unit": "%"}]}
{"smiles": "CCO", "note": "[ethanol]", "values": [{"measurement": "rate constant kn for uptake into vesicle interior", "setting": "[2]; 10 μg lipid vesicles in 2 ml buffer, 10 μl ethanol", "value": 62.9, "unit": "per second"}, {"measurement": "diffusion coefficient Dm", "setting": "[2]; computed from P and K assuming λ=40×10^−8 cm", "value": "3.9×10^−7 cm^−2·s^−1"}, {"measurement": "diffusion coefficient Dm, reported value", "setting": "[3]", "value": "1.5×10^−7 cm^−2s^−1"}]}
{"smiles": "CCCCCCO", "note": "[hexanol]", "values": [{"measurement": "ionization", "setting": "[1]; pH 4.0 and pH 7.0", "value": "not substantially ionized at either pH"}]}
